Target: T1, P2Y12 receptor (Homo sapiens, UniProt Q9H244)
T1 construct: expressed in transfected cells; host or cells: CHO cells (membrane preparation)
Experiment: Functional inhibition of 2-Me-S-ADP induced P2Y12 signalling (35S-GTPγS, membranes from P2Y12 transfected CHO-cells)
Assay type: biochemical
Details: EC80 concentration of agonist 2-methyl-thio-adenosine diphosphate, 30° C., 45 min
Protocol: Functional inhibition of the P2Y12 receptor can be measured by in vitro assays using cell membranes from P2Y12 transfected CHO-cells, the methodology is indicated below.
Functional inhibition of 2-Me-S-ADP induced P2Y12 signalling: 5 μg of membranes were diluted in 200 μl of 200 mM NaCl, 1 mM MgCl2, 50 mM HEPES (pH 7.4), 0.01% BSA, 30 μg/ml saponin and 10 μM GDP. To this was added an EC80 concentration of agonist (2-methyl-thio-adenosine diphosphate), the required concentration of test compound and 0.1 μCi ^35S-GTPγS. The reaction was allowed to proceed at 30° C. for 45 min. Samples were then transferred on to GF/B filters using a cell harvester and washed with wash buffer (50 mM Tris (pH 7.4), 5 mM MgCl2, 50 mM NaCl). Filters were then covered with scintilant and counted for the amount of ^35S-GTPγS retained by the filter. Maximum activity was that determined in the presence of the agonist and minimum activity in the absence of the agonist following subtraction of the value determined for non-specific activity. The effect of compounds at various concentrations was plotted according to the equation […]
y=A+((B−A)/(1+((C/x)̂D)))
A is the bottom plateau of the curve i.e. the final minimum y value
B is the top of the plateau of the curve i.e. the final maximum y value
C is the x value at the middle of the curve. This represents the log EC50 value when A+B=100 […]

T1 sequence (Q9H244 whole entry): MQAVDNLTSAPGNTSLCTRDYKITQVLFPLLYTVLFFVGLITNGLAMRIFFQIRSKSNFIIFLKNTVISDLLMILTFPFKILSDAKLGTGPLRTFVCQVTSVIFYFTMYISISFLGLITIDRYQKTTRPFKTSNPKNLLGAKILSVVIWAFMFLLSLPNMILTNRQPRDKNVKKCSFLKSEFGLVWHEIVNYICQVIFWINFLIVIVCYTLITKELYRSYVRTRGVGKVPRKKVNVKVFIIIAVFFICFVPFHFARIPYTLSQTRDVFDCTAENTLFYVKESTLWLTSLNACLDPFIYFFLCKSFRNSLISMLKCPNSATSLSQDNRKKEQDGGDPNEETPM

Structure (SMILES)	IC50
CCOC(=O)c1cc(C#N)c(N2CCC(S(=O)(=O)NS(=O)(=O)Cc3ccccc3)CC2)nc1C [Example 2, ethyl 6-(4-{[(benzylsulfonyl)amino]sulfonyl}piperidin-1-yl)-5-cyano-2-methylnicotinate]	640 nM
CCOC(=O)c1cc(C#N)c(N2CCC(S(=O)(=O)NC(=O)Cc3ccc(F)cc3)CC2)nc1C [Example 4, Ethyl 5-cyano-6-[4-({[(4-fluorophenyl)acetyl]amino}sulfonyl)piperidin-1-yl]-2-methylnicotinate]	300 nM

Reference: patent US20080009523A1, “New Pyridine Analogues IV” (ASTRAZENECA AB, priority 2006, published 2008)
